Measured values: PubChem BioAssay (NCI)
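A five-concentration, 48-hour dose response in 96-well plates underlies each endpoint, interpolated linearly between surrounding concentrations. TGI: concentration producing complete growth inhibition.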

What was measured:
Experiment in all cases: NCI tumour cell line growth inhibition, 48 h
RPMI-8226 leukemia = tested on: RPMI-8226 leukemia
UACC-257 melanoma = tested on: UACC-257 melanoma
CAKI-1 renal = tested on: CAKI-1 renal
RXF 393 renal = tested on: RXF 393 renal
OVCAR-3 ovarian = tested on: OVCAR-3 ovarian
SK-MEL-5 melanoma = tested on: SK-MEL-5 melanoma
HOP-92 NSCLC = tested on: HOP-92 NSCLC
CCRF-CEM leukemia = tested on: CCRF-CEM leukemia
OVCAR-4 ovarian = tested on: OVCAR-4 ovarian
KM20L2 colon = tested on: KM20L2 colon
OVCAR-5 ovarian = tested on: OVCAR-5 ovarian
SNB-78 CNS = tested on: SNB-78 CNS
A498 renal = tested on: A498 renal
A549 NSCLC = tested on: A549 NSCLC
HT29 colon = tested on: HT29 colon
SN12C renal = tested on: SN12C renal
SF-539 CNS = tested on: SF-539 CNS
SW-620 colon = tested on: SW-620 colon
NCI-H226 lung = tested on: NCI-H226 lung
NCI-H522 lung = tested on: NCI-H522 lung
SK-OV-3 ovarian = tested on: SK-OV-3 ovarian
EKVX NSCLC = tested on: EKVX NSCLC
M19-MEL melanoma = tested on: M19-MEL melanoma
NCI-H23 lung = tested on: NCI-H23 lung
TK-10 renal = tested on: TK-10 renal
DMS 273 small cell lung = tested on: DMS 273 small cell lung
OVCAR-8 ovarian = tested on: OVCAR-8 ovarian
M14 melanoma = tested on: M14 melanoma
NCI-H460 lung = tested on: NCI-H460 lung
HOP-62 NSCLC = tested on: HOP-62 NSCLC
SK-MEL-2 melanoma = tested on: SK-MEL-2 melanoma
LXFL 529 NSCLC = tested on: LXFL 529 NSCLC
MALME-3M melanoma = tested on: MALME-3M melanoma
SF-268 CNS = tested on: SF-268 CNS
K-562 leukemia = tested on: K-562 leukemia
MOLT-4 leukemia = tested on: MOLT-4 leukemia
HCC-2998 colon = tested on: HCC-2998 colon
HCT-116 colon = tested on: HCT-116 colon
IGROV1 ovarian = tested on: IGROV1 ovarian
UO-31 renal = tested on: UO-31 renal
SK-MEL-28 melanoma = tested on: SK-MEL-28 melanoma
DMS 114 small cell lung = tested on: DMS 114 small cell lung
HOP-18 NSCLC = tested on: HOP-18 NSCLC
SF-295 CNS = tested on: SF-295 CNS
KM12 colon = tested on: KM12 colon
HL-60(TB) leukemia = tested on: HL-60(TB) leukemia
UACC-62 melanoma = tested on: UACC-62 melanoma
SNB-19 CNS = tested on: SNB-19 CNS
786-0 renal = tested on: 786-0 renal
RXF-631 renal = tested on: RXF-631 renal
SNB-75 CNS = tested on: SNB-75 CNS
DLD-1 colon = tested on: DLD-1 colon
HCT-15 colon = tested on: HCT-15 colon
LOX IMVI melanoma = tested on: LOX IMVI melanoma
COLO 205 colon = tested on: COLO 205 colon
U251 CNS = tested on: U251 CNS
ACHN renal = tested on: ACHN renal
SR leukemia = tested on: SR leukemia
XF 498 CNS = tested on: XF 498 CNS

Q: What does the source list for `O=[N+]([O-])c1ccc(Cl)c(C2CC(c3cccc4ccccc34)=Nc3ccccc3S2)c1` (configuration not stated)?
A: TGI (RPMI-8226 leukemia): > 47.5 µM; TGI (UACC-257 melanoma): > 100 µM; TGI (CAKI-1 renal): > 100 µM; TGI (RXF 393 renal): 21.7 µM; TGI (OVCAR-3 ovarian): 51.2 µM; TGI (SK-MEL-5 melanoma): > 31.6 µM; TGI (HOP-92 NSCLC): 49.8 µM; TGI (CCRF-CEM leukemia): > 64.7 µM; TGI (OVCAR-4 ovarian): > 100 µM; TGI (KM20L2 colon): > 100 µM; TGI (OVCAR-5 ovarian): > 100 µM; TGI (SNB-78 CNS): > 66.7 µM; TGI (A498 renal): > 78.9 µM; TGI (A549 NSCLC): > 100 µM; TGI (HT29 colon): > 59.7 µM; TGI (SN12C renal): > 59.4 µM; TGI (SF-539 CNS): 49.3 µM; TGI (SW-620 colon): > 66.7 µM; TGI (NCI-H226 lung): > 67.1 µM; TGI (NCI-H522 lung): 43.9 µM; TGI (SK-OV-3 ovarian): > 100 µM; TGI (EKVX NSCLC): > 100 µM; TGI (M19-MEL melanoma): > 66.1 µM; TGI (NCI-H23 lung): 20.8 µM; TGI (TK-10 renal): > 100 µM; TGI (DMS 273 small cell lung): > 100 µM; TGI (OVCAR-8 ovarian): 30.8 µM; TGI (M14 melanoma): 63.4 µM; TGI (NCI-H460 lung): > 100 µM; TGI (HOP-62 NSCLC): > 100 µM; TGI (SK-MEL-2 melanoma): 62.8 µM; TGI (LXFL 529 NSCLC): 88.9 µM; TGI (MALME-3M melanoma): > 100 µM; TGI (SF-268 CNS): > 92.1 µM; TGI (K-562 leukemia): > 69.6 µM; TGI (MOLT-4 leukemia): > 56.9 µM; TGI (HCC-2998 colon): > 100 µM; TGI (HCT-116 colon): 38.7 µM; TGI (IGROV1 ovarian): > 100 µM; TGI (UO-31 renal): > 66.8 µM; TGI (SK-MEL-28 melanoma): > 84.2 µM; TGI (DMS 114 small cell lung): 84.5 µM; TGI (HOP-18 NSCLC): > 100 µM; TGI (SF-295 CNS): > 94.1 µM; TGI (KM12 colon): > 100 µM; TGI (HL-60(TB) leukemia): 26.2 µM; TGI (UACC-62 melanoma): 59 µM; TGI (SNB-19 CNS): > 100 µM; TGI (786-0 renal): 30.4 µM; TGI (RXF-631 renal): > 100 µM; TGI (SNB-75 CNS): 60.5 µM; TGI (DLD-1 colon): 28.1 µM; TGI (HCT-15 colon): > 100 µM; TGI (LOX IMVI melanoma): 59.2 µM; TGI (COLO 205 colon): > 100 µM; TGI (U251 CNS): 65.9 µM; TGI (ACHN renal): > 100 µM; TGI (SR leukemia): 68.9 µM

Q: How did the TGI (RPMI-8226 leukemia) turn out when `NC(=O)c1c([N+](=O)[O-])cc(C(F)(F)F)cc1[N+](=O)[O-]` was run?
A: > 100 µM

Q: What about the TGI (UACC-257 melanoma) of the same compound?
A: 99.8 µM

Q: What about the TGI (CAKI-1 renal) of the same compound?
A: > 100 µM

Q: What about the TGI (RXF 393 renal) of the same compound?
A: > 100 µM

Q: And the TGI (OVCAR-3 ovarian)?
A: 63.3 µM

Q: What about the TGI (SK-MEL-5 melanoma) of the same compound?
A: > 100 µM

Q: What about the TGI (HOP-92 NSCLC) of the same compound?
A: > 100 µM

Q: What about the TGI (OVCAR-4 ovarian) of the same compound?
A: > 100 µM

Q: What about the TGI (KM20L2 colon) of the same compound?
A: 93.5 µM

Q: What about the TGI (OVCAR-5 ovarian) of the same compound?
A: > 100 µM

Q: And the TGI (SNB-78 CNS)?
A: > 100 µM

Q: And the TGI (A498 renal)?
A: > 100 µM

Q: And the TGI (A549 NSCLC)?
A: > 100 µM

Q: What about the TGI (HT29 colon) of the same compound?
A: > 100 µM

Q: What about the TGI (SN12C renal) of the same compound?
A: > 100 µM

Q: And the TGI (SF-539 CNS)?
A: > 100 µM

Q: And the TGI (SW-620 colon)?
A: > 100 µM

Q: And the TGI (NCI-H226 lung)?
A: > 100 µM

Q: What about the TGI (NCI-H522 lung) of the same compound?
A: > 100 µM

Q: And the TGI (SK-OV-3 ovarian)?
A: > 100 µM

Q: What about the TGI (EKVX NSCLC) of the same compound?
A: > 100 µM

Q: And the TGI (NCI-H23 lung)?
A: 98.9 µM

Q: What about the TGI (TK-10 renal) of the same compound?
A: > 100 µM

Q: And the TGI (DMS 273 small cell lung)?
A: > 100 µM

Q: What about the TGI (OVCAR-8 ovarian) of the same compound?
A: > 100 µM

Q: And the TGI (M14 melanoma)?
A: > 100 µM

Q: And the TGI (NCI-H460 lung)?
A: > 100 µM

Q: And the TGI (HOP-62 NSCLC)?
A: > 100 µM

Q: And the TGI (LXFL 529 NSCLC)?
A: > 100 µM

Q: What about the TGI (MALME-3M melanoma) of the same compound?
A: 52.1 µM

Q: And the TGI (SF-268 CNS)?
A: > 100 µM

Q: And the TGI (K-562 leukemia)?
A: > 100 µM

Q: And the TGI (MOLT-4 leukemia)?
A: > 100 µM

Q: What about the TGI (HCC-2998 colon) of the same compound?
A: > 100 µM

Q: And the TGI (HCT-116 colon)?
A: > 100 µM

Q: And the TGI (IGROV1 ovarian)?
A: > 100 µM

Q: What about the TGI (UO-31 renal) of the same compound?
A: > 100 µM

Q: What about the TGI (SK-MEL-28 melanoma) of the same compound?
A: > 100 µM

Q: And the TGI (DMS 114 small cell lung)?
A: 73.3 µM

Q: What about the TGI (HOP-18 NSCLC) of the same compound?
A: > 100 µM

Q: What about the TGI (SF-295 CNS) of the same compound?
A: > 100 µM

Q: What about the TGI (XF 498 CNS) of the same compound?
A: > 100 µM

Q: What about the TGI (KM12 colon) of the same compound?
A: > 100 µM

Q: And the TGI (HL-60(TB) leukemia)?
A: 47.4 µM

Q: And the TGI (UACC-62 melanoma)?
A: > 100 µM

Q: And the TGI (SNB-19 CNS)?
A: > 100 µM

Q: And the TGI (786-0 renal)?
A: > 100 µM

Q: And the TGI (SNB-75 CNS)?
A: > 100 µM

Q: And the TGI (DLD-1 colon)?
A: > 100 µM

Q: What about the TGI (LOX IMVI melanoma) of the same compound?
A: > 100 µM

Q: And the TGI (COLO 205 colon)?
A: 62.7 µM

Q: What about the TGI (U251 CNS) of the same compound?
A: > 100 µM

Q: What about the TGI (ACHN renal) of the same compound?
A: > 100 µM

Q: What about the TGI (SR leukemia) of the same compound?
A: > 100 µM
